Source: patent US5556862A, “Pharmaceutical compositions containing isoquinoline derivatives” (Nippon Zoki Pharmaceutical Co., Ltd., priority 1993, dated 1996)
Where a name gives a salt, the structure may show the parent alone. One block for each compound: values may come before it.

Molecular target: PDEIV
Assay: Inhibitory activity towards phosphodiesterase type IV isozyme ([3H] cAMP substrate, in the presence of 10 μM cilostazol)
Format: biochemical
Settings: type IV isozyme from porcine artery, 30° C.

IC50 (pH 7.5, monohydrate): 17.2 µM
Structure (SMILES): CCOc1ccc(CC2=NCCc3cc(OCC)c(OCC)cc32)cc1OCC [Compound 6, 1-(3',4'-Diethoxybenzyl)-6,7-diethoxy-3,4-dihydroisoquinolinium-theophylline-7-acetate monohydrate]

IC50 (pH 7.5): 26.1 µM
Structure (SMILES): CCCCOc1cc(CC2CNC(=O)N2)ccc1OC (stereo not drawn) [Ro20-1724, reference compound]

IC50 (pH 7.5, hydrochloride): 8.1 µM
Structure (SMILES): CCOc1ccc(CC2=NCCc3cc(OCC)c(OCC)cc32)cc1OCC [Compound 4, 1-(3',4'-Diethoxybenzyl)-6,7-diethoxy-3,4-dihydroisoquinoline hydrochloride]
